Source: the supplement of paper PMC10627819

Assays:
B. subtilis 168 [1] = assay: fitness (endpoint OD595 vs no drug) (fraction); higher = more growth; conditions: one replicate, main component drawn
How it was run: (§1)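 With the first reading as background, OD595 was measured every 30 min for 14 h in 384-well plates kept at 37 °C and inoculated at OD595 0.01. TSB, LB Lennox or CY was the medium. Fitness is the optical density at the transition into stationary phase divided by the robust mean of no-drug control wells, with a cap of 1.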

S. pneumoniae D39V [2] = assay: as above; conditions: main component drawn
How it was run: as §1

B. subtilis 168 [3] = assay: Bliss interaction score (quartile over a dose matrix) (fitness difference); higher = more antagonism (negative = synergy); conditions: main component drawn
How it was run: (§2)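 Quartiles summarise the Bliss score over technical, biological and donor/recipient replicates, where the score is observed minus expected fitness under a product model. Expected fitness uses single-drug values inferred from combination data. Fitness is OD595 at entry into stationary phase over the plate's robust no-drug mean, capped at 1.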

S. aureus DSM 20231 = assay: as above; conditions: main component drawn
How it was run: as §2

S. aureus Newman = assay: as above; conditions: main component drawn
How it was run: as §2

S. pneumoniae D39V [4] = assay: as above; conditions: main component drawn
How it was run: as §2
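For Bliss interaction score (quartile over a dose matrix) in this document: first quartile when negative (synergy) and third quartile when positive (antagonism).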

CCC[C@@H]1C[C@@H](C(=O)N[C@@H]([C@H]2O[C@H](SC)[C@H](O)[C@@H](O)[C@H]2O)[C@H](C)Cl)N(C)C1 [Clindamycin] + CCC(C)C1C(=O)NC(=C)C(=O)NC(C(=O)NC(CSCC(C(=O)N1)NC(=O)/C(=C/C)/NC(=O)C(C(C)CC)N)C(=O)NC2C(SCC(NC(=O)CNC(=O)C3CCCN3C2=O)C(=O)NC(CCCCN)C(=O)NC4C(SCC(NC(=O)CNC(=O)C(NC(=O)C(NC(=O)C(NC(=O)CNC4=O)C)CC(C)C)CCSC)C(=O)NC(CC(=O)N)C(=O)NC(CCSC)C(=O)NC(CCCCN)C(=O)NC5C(SCC6C(=O)NC(C(=O)NC(CSC(C(C(=O)N6)NC(=O)C(NC5=O)C)C)C(=O)NC(CO)C(=O)NC(C(C)CC)C(=O)NC(CC7=CN=CN7)C(=O)NC(C(C)C)C(=O)NC(=C)C(=O)NC(CCCCN)C(=O)O)CC8=CN=CN8)C)C)C)CC(C)C [Nisin]
Conditions	fitness
B. subtilis 168 [1], first compound 0.0039 µg/mL, partner 0.5 µg/mL	0.985
B. subtilis 168 [1], first compound 0.0039 µg/mL, partner 1 µg/mL	0.936
B. subtilis 168 [1], first compound 0.0039 µg/mL, partner 2 µg/mL	0.855
B. subtilis 168 [1], first compound 0.0078 µg/mL, partner 0.5 µg/mL	0.875
B. subtilis 168 [1], first compound 0.0078 µg/mL, partner 1 µg/mL	0.847
B. subtilis 168 [1], first compound 0.0078 µg/mL, partner 2 µg/mL	0.771
B. subtilis 168 [1], first compound 0.0156 µg/mL, partner 0.5 µg/mL	0.858
B. subtilis 168 [1], first compound 0.0156 µg/mL, partner 1 µg/mL	0.834
B. subtilis 168 [1], first compound 0.0156 µg/mL, partner 2 µg/mL	0.742
B. subtilis 168 [1], first compound 0.0625 µg/mL, partner 0.5 µg/mL	0.559
B. subtilis 168 [1], first compound 0.0625 µg/mL, partner 1 µg/mL	0.565
B. subtilis 168 [1], first compound 0.0625 µg/mL, partner 1.25 µg/mL	0.647
B. subtilis 168 [1], first compound 0.0625 µg/mL, partner 1.6 µg/mL	0.455
B. subtilis 168 [1], first compound 0.0625 µg/mL, partner 2 µg/mL	0.261
B. subtilis 168 [1], first compound 0.0625 µg/mL, partner 2.5 µg/mL	0.564
B. subtilis 168 [1], first compound 0.0625 µg/mL, partner 3.2 µg/mL	0.0252
B. subtilis 168 [1], first compound 0.0625 µg/mL, partner 4 µg/mL	0.0334
B. subtilis 168 [1], first compound 0.0625 µg/mL, partner 5 µg/mL	0.171
B. subtilis 168 [1], first compound 0.0625 µg/mL, partner 6.4 µg/mL	0.0392
B. subtilis 168 [1], first compound 0.0625 µg/mL, partner 8 µg/mL	0.0341
B. subtilis 168 [1], first compound 0.0625 µg/mL, partner 16 µg/mL	0.0049
B. subtilis 168 [1], first compound 0.125 µg/mL, partner 0.5 µg/mL	0.461
B. subtilis 168 [1], first compound 0.125 µg/mL, partner 1 µg/mL	0.389
B. subtilis 168 [1], first compound 0.125 µg/mL, partner 1.25 µg/mL	0.47
B. subtilis 168 [1], first compound 0.125 µg/mL, partner 1.6 µg/mL	0.196
B. subtilis 168 [1], first compound 0.125 µg/mL, partner 2 µg/mL	0.25
B. subtilis 168 [1], first compound 0.125 µg/mL, partner 2.5 µg/mL	0.423
B. subtilis 168 [1], first compound 0.125 µg/mL, partner 3.2 µg/mL	0.0383
B. subtilis 168 [1], first compound 0.125 µg/mL, partner 4 µg/mL	0.0299
B. subtilis 168 [1], first compound 0.125 µg/mL, partner 5 µg/mL	0.0548
B. subtilis 168 [1], first compound 0.125 µg/mL, partner 6.4 µg/mL	0.0456
B. subtilis 168 [1], first compound 0.125 µg/mL, partner 8 µg/mL	0.0157
B. subtilis 168 [1], first compound 0.125 µg/mL, partner 16 µg/mL	0.0089
B. subtilis 168 [1], first compound 0.25 µg/mL, partner 0.5 µg/mL	0.402
B. subtilis 168 [1], first compound 0.25 µg/mL, partner 1 µg/mL	0.371
B. subtilis 168 [1], first compound 0.25 µg/mL, partner 1.25 µg/mL	0.386
B. subtilis 168 [1], first compound 0.25 µg/mL, partner 1.6 µg/mL	0.0539
B. subtilis 168 [1], first compound 0.25 µg/mL, partner 2 µg/mL	0.0613
B. subtilis 168 [1], first compound 0.25 µg/mL, partner 2.5 µg/mL	0.275
B. subtilis 168 [1], first compound 0.25 µg/mL, partner 3.2 µg/mL	0.0454
B. subtilis 168 [1], first compound 0.25 µg/mL, partner 4 µg/mL	0.0361
B. subtilis 168 [1], first compound 0.25 µg/mL, partner 5 µg/mL	0.0507
B. subtilis 168 [1], first compound 0.25 µg/mL, partner 6.4 µg/mL	0.0461
B. subtilis 168 [1], first compound 0.25 µg/mL, partner 8 µg/mL	0.0269
B. subtilis 168 [1], first compound 0.25 µg/mL, partner 16 µg/mL	0.0163
S. pneumoniae D39V [2], first compound 0.0125 µg/mL, partner 1.6 µg/mL	0.0319
S. pneumoniae D39V [2], first compound 0.0125 µg/mL, partner 3.2 µg/mL	0.0224
S. pneumoniae D39V [2], first compound 0.0125 µg/mL, partner 6.4 µg/mL	0.0205
S. pneumoniae D39V [2], first compound 0.015 µg/mL, partner 0.4275 µg/mL	0.923
S. pneumoniae D39V [2], first compound 0.015 µg/mL, partner 1.71 µg/mL	0.11
S. pneumoniae D39V [2], first compound 0.025 µg/mL, partner 1.6 µg/mL	0.0417
S. pneumoniae D39V [2], first compound 0.025 µg/mL, partner 3.2 µg/mL	0.0389
S. pneumoniae D39V [2], first compound 0.025 µg/mL, partner 6.4 µg/mL	0.0111
S. pneumoniae D39V [2], first compound 0.03 µg/mL, partner 0.4275 µg/mL	0.774
S. pneumoniae D39V [2], first compound 0.03 µg/mL, partner 1.71 µg/mL	0.0769
S. pneumoniae D39V [2], first compound 0.05 µg/mL, partner 1.6 µg/mL	0.0221
S. pneumoniae D39V [2], first compound 0.05 µg/mL, partner 3.2 µg/mL	0.0421
S. pneumoniae D39V [2], first compound 0.05 µg/mL, partner 6.4 µg/mL	0.0305
S. pneumoniae D39V [2], first compound 0.06 µg/mL, partner 0.4275 µg/mL	0.645
S. pneumoniae D39V [2], first compound 0.06 µg/mL, partner 0.855 µg/mL	0.252
S. pneumoniae D39V [2], first compound 0.06 µg/mL, partner 1.71 µg/mL	0.0778

Conditions	Bliss interaction score
B. subtilis 168 [3]	0.0605
S. aureus DSM 20231	0.0292
S. aureus Newman	0.0857
S. pneumoniae D39V [4]	-0.0351
